Here are results for 32 compounds from patent US12331046B2, “CTPS1 inhibitors and uses thereof” (Nimbus Clotho, Inc., priority 2020, dated 2025).

SMILES strings stand for the structures.

The target of the assay is human CTPS1 (Homo sapiens (Human), UniProt P17812). As to the kind of experiment: hCTPS1 biochemical assay (ADP-Glo). Conditions: hCTPS1 25 nM, ATP 120 uM, UTP 160 uM, GTP 60 uM, L-Glutamine 100 uM, 25 degrees C.
human CTPS1, sequence (P17812 whole entry): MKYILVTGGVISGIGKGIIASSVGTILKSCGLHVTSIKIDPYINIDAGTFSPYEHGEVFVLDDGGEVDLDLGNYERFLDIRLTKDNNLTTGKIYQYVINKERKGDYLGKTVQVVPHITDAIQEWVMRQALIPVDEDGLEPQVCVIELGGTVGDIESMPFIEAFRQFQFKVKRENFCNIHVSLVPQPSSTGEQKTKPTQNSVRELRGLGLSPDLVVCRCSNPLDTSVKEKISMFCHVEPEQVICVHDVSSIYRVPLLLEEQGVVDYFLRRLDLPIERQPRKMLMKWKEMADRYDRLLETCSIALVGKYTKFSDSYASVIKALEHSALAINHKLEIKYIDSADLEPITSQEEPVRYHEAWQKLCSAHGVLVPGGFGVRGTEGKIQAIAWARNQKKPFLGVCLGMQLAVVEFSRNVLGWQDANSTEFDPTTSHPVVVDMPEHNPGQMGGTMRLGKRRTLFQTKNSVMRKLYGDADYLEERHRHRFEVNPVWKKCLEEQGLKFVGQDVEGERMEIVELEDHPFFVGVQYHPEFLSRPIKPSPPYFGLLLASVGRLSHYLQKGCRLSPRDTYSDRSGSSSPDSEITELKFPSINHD
Regarding `CCOc1cncc(-c2ccc(C(=O)N3CCC[C@@H]3c3cc(NS(=O)(=O)C4CC4)ccn3)c(F)c2)n1` [I-75, N-[2-[(2R)-1-[4-(6-ethoxypyrazin-2-yl)-2-fluorobenzoyl]pyrrolidin-2-yl]pyridin-4-yl]cyclopropanesulfonamide], the IC50 (as a rule, the concentration that gives 50% inhibition) was in the range of 100 to 1000 nM.

Take `CCOc1cncc(-c2ncc(C(=O)N3CCC[C@@H]3c3cc(NS(=O)(=O)C4CC4)ccn3)s2)n1` [I-76, N-[2-[(2R)-1-[2-(6-ethoxypyrazin-2-yl)-1,3-thiazole-5-carbonyl]pyrrolidin-2-yl]pyridin-4-yl]cyclopropanesulfonamide]: the IC50 was in the range of 100 to 1000 nM.

Compound `CCOc1cncc(-c2ccc(C(=O)N3CCC[C@@H]3c3cc(NS(=O)(=O)C4CC4)ccn3)cc2)n1` [I-77, (R)—N-(2-(1-(4-(6-ethoxypyrazin-2-yl)benzoyl)pyrrolidin-2-yl)pyridin-4-yl)cyclopropanesulfonamide] gave an IC50 of 100 to 1000 nM.

For the compound `CCOc1cncc(-c2ccc3c(c2)C(=O)N(Cc2cc(NS(=O)(=O)C4CC4)ccn2)C3=O)n1` [I-78, N-(2-[[5-(6-ethoxypyrazin-2-yl)-1,3-dioxoisoindol-2-yl]methyl]pyridin-4-yl) cyclopropane Sulfonamide], the 50% inhibitory concentration (IC50) lay within 100 to 1000 nM.

In turn, `CCOc1cncc(-n2ccc(C(=O)N3CCC[C@@H]3c3cccc(NS(=O)(=O)C(F)F)c3)n2)n1` [I-79, N-[3-[(2R)-1-[1-(6-ethoxypyrazin-2-yl)pyrazole-3-carbonyl]pyrrolidin-2-yl]phenyl]-1,1-difluoromethanesulfonamide] displayed an IC50 of at least 1000 nM.

`CCOc1cncc(-c2ccc(C(=O)N3CCC[C@@H]3c3cc(NS(=O)(=O)C4CC4)ccn3)nc2)n1` [I-80, N-[2-[(2R)-1-[5-(6-ethoxypyrazin-2-yl)pyridine-2-carbonyl]pyrrolidin-2-yl]pyridin-4-yl]cyclopropanesulfonamide] registered a 50% inhibitory concentration (IC50) of at least 1000 nM.

Consider `CC[C@H]1CCN(c2ncc(C(=O)NCc3cc(NS(=O)(=O)C4CC4)ccn3)nc2C)C1` [I-81], for which the half-maximal inhibitory concentration (IC50) was at least 1000 nM.

Compound `CCOc1cncc(-c2ccc(C(=O)NCc3ccnc(NS(=O)(=O)N4CCC4)n3)nc2)n1` [I-82, N-((2-(azetidine-1-sulfonamido)pyrimidin-4-yl)methyl)-5-(6-ethoxypyrazin-2-yl)picolinamide] showed a 50% inhibitory concentration (IC50) of at least 1000 nM.

As for `CCOc1cncc(-c2cnc(C(=O)N[C@](C)(COC)c3cc(NS(=O)(=O)C4CC4)ccn3)s2)n1` [I-90, (S)—N-(2-(4-(cyclopropanesulfonamido)pyridin-2-yl)-1-methoxypropan-2-yl)-5-(6-ethoxypyrazin-2-yl)thiazole-2-carboxamide], the IC50 is below 100 nM.

As to `CCOc1cncc(-c2cnc(C(=O)N[C@@](C)(COC)c3cc(NS(=O)(=O)C4CC4)ccn3)s2)n1` [I-91, (R)—N-(2-(4-(cyclopropanesulfonamido)pyridin-2-yl)-1-methoxypropan-2-yl)-5-(6-ethoxypyrazin-2-yl)thiazole-2-carboxamide], the IC50 was 100 to 1000 nM.

Take `CCOC[C@H](NC(=O)c1ncc(-c2cncc(OCC)n2)s1)c1cc(NS(=O)(=O)C2CC2)ccn1` [I-96, (R)—N-(1-(4-(cyclopropanesulfonamido)pyridin-2-yl)-2-ethoxyethyl)-5-(6-ethoxypyrazin-2-yl)thiazole-2-carboxamide]: the 50% inhibitory concentration (IC50) is below 100 nM.

In the case of `CCOC[C@@H](NC(=O)c1ncc(-c2cncc(OCC)n2)s1)c1cc(NS(=O)(=O)C2CC2)ccn1` [I-97, (S)—N-(1-(4-(cyclopropanesulfonamido)pyridin-2-yl)-2-ethoxyethyl)-5-(6-ethoxypyrazin-2-yl)thiazole-2-carboxamide], the half-maximal inhibitory concentration (IC50) is below 100 nM.

`CCOc1cncc(-c2cnc(C(=O)N[C@@H](CC3CCN(C)CC3)c3cc(NS(=O)(=O)C4CC4)ccn3)s2)n1` [I-99, (S)—N-(1-(4-(cyclopropanesulfonamido)pyridin-2-yl)-2-(1-methylpiperidin-4-yl)ethyl)-5-(6-ethoxypyrazin-2-yl)thiazole-2-carboxamide] came in with a 50% inhibitory concentration (IC50) below 100 nM.

As to `CCOc1cncc(-c2cnc(C(=O)N[C@H](CC3CCN(C)CC3)c3cc(NS(=O)(=O)C4CC4)ccn3)s2)n1` [I-100, (R)—N-(1-(4-(cyclopropanesulfonamido)pyridin-2-yl)-2-(1-methylpiperidin-4-yl)ethyl)-5-(6-ethoxypyrazin-2-yl)thiazole-2-carboxamide], the IC50 was below 100 nM.

In turn, `CCOc1cncc(-c2cnc(C(=O)NC(CN3[C@H](C)COC[C@@H]3C)c3cc(NS(=O)(=O)C4CC4)ccn3)s2)n1` (some centres unmarked) [I-111] came in with an IC50 below 100 nM.

Consider `CCOc1cncc(-c2cnc(C(=O)N[C@H](CN3C[C@H]4C[C@@H]3CO4)c3cc(NS(=O)(=O)C4CC4)ccn3)s2)n1` [I-112, N—((R)-2-((1R,4R)-2-oxa-5-azabicyclo[2.2.1]heptan-5-yl)-1-(4-(cyclopropanesulfonamido)pyridin-2-yl)ethyl)-5-(6-ethoxypyrazin-2-yl)thiazole-2-carboxamide], for which the IC50 was below 100 nM.

For `CCOc1cncc(-c2cnc(C(=O)N[C@@H](CN3C[C@H]4C[C@@H]3CO4)c3cc(NS(=O)(=O)C4CC4)ccn3)s2)n1` [I-113, N—((S)-2-((1R,4R)-2-oxa-5-azabicyclo[2.2.1]heptan-5-yl)-1-(4-(cyclopropanesulfonamido)pyridin-2-yl)ethyl)-5-(6-ethoxypyrazin-2-yl)thiazole-2-carboxamide], the IC50 is below 100 nM.

Compound `CCOc1cncc(-c2cnc(C(=O)N[C@@H](CN3[C@@H]4COC[C@H]3C4)c3cc(NS(=O)(=O)C4CC4)ccn3)s2)n1` [I-114] showed a half-maximal inhibitory concentration (IC50) below 100 nM.

`CCOc1cncc(-c2cnc(C(=O)N[C@H](CN3[C@@H]4COC[C@H]3C4)c3cc(NS(=O)(=O)C4CC4)ccn3)s2)n1` [I-115]: the IC50 was below 100 nM.

`CCOc1cncc(-c2cnc(C(=O)NC(CN3CCOCC3(C)C)c3cc(NS(=O)(=O)C4CC4)ccn3)s2)n1` (centres unmarked) [I-122] returned a half-inhibitory concentration (IC50) below 100 nM.

In the case of `CCOc1cncc(-c2cnc(C(=O)NC(CCN(C)C)c3c(F)ccc(NS(=O)(=O)C4CC4)c3F)s2)n1` (centres unmarked) [I-123, N-[1-(3-cyclopropanesulfonamido-2,6-difluorophenyl)-3-(dimethylamino)propyl]-5-(6-ethoxypyrazin-2-yl)-1,3-thiazole-2-carboxamide], the half-maximal inhibitory concentration (IC50) was at least 1000 nM.

`CCOc1cncc(-c2cnc(C(=O)N[C@H](CCN3CC[C@H](F)C3)c3cc(NS(=O)(=O)C4CC4)ccn3)s2)n1` [I-126, N—((R)-1-(4-(cyclopropanesulfonamido)pyridin-2-yl)-3-((S)-3-fluoropyrrolidin-1-yl)propyl)-5-(6-ethoxypyrazin-2-yl)thiazole-2-carboxamide] gave a half-maximal inhibitory concentration (IC50) below 100 nM.

Consider `CCOc1cncc(-c2cnc(C(=O)N[C@H](CCN3CC[C@@H](F)C3)c3cc(NS(=O)(=O)C4CC4)ccn3)s2)n1` [I-127, N—((R)-1-(4-(cyclopropanesulfonamido)pyridin-2-yl)-3-((R)-3-fluoropyrrolidin-1-yl)propyl)-5-(6-ethoxypyrazin-2-yl)thiazole-2-carboxamide], for which the IC50 was below 100 nM.

In turn, `CCOc1cncc(-c2cnc(C(=O)N[C@@H](CCN3CC[C@@H](F)C3)c3cc(NS(=O)(=O)C4CC4)ccn3)s2)n1` [I-128, N—((S)-1-(4-(cyclopropanesulfonamido)pyridin-2-yl)-3-((R)-3-fluoropyrrolidin-1-yl)propyl)-5-(6-ethoxypyrazin-2-yl)thiazole-2-carboxamide] had an IC50 below 100 nM.

`CCOc1cncc(-c2cnc(C(=O)N[C@@H](CCN3CC[C@H](F)C3)c3cc(NS(=O)(=O)C4CC4)ccn3)s2)n1` [I-129, N—((S)-1-(4-(cyclopropanesulfonamido)pyridin-2-yl)-3-((S)-3-fluoropyrrolidin-1-yl)propyl)-5-(6-ethoxypyrazin-2-yl)thiazole-2-carboxamide] came in with an IC50 below 100 nM.

Compound `CCOc1cncc(-c2cnc(C(=O)NC(CCN3CC[C@H](F)C3)c3cc(NS(=O)(=O)C4CC4)ccn3)s2)n1` (stereo partly drawn) [I-130, N-(1-(4-(cyclopropanesulfonamido)pyridin-2-yl)-3-((S)-3-fluoropyrrolidin-1-yl)propyl)-5-(6-ethoxypyrazin-2-yl)thiazole-2-carboxamide] registered an IC50 below 100 nM.

Consider `CCOc1cncc(-c2cnc(C(=O)NC(CCN3CC[C@@H](F)C3)c3cc(NS(=O)(=O)C4CC4)ccn3)s2)n1` (stereo partly drawn) [I-131, N-(1-(4-(cyclopropanesulfonamido)pyridin-2-yl)-3-((R)-3-fluoropyrrolidin-1-yl)propyl)-5-(6-ethoxypyrazin-2-yl)thiazole-2-carboxamide], for which the concentration for half-maximal inhibition (IC50) is below 100 nM.

Compound `CCOc1cncc(-c2cnc(C(=O)NC3(c4cc(NS(=O)(=O)C5CC5)ccn4)CCOCC3)s2)n1` [I-132] yielded an IC50 below 100 nM.

`O=C(c1ncc(-c2cnc3[nH]cc(CC(F)F)c3n2)s1)N1CCCC1c1ccnc(NS(=O)(=O)C2CC2)n1` (centres unmarked) [I-137, N-[4-(1-{5-[7-(2,2-difluoroethyl)-5H-pyrrolo[2,3-b]pyrazin-2-yl]-1,3-thiazole-2-carbonyl}pyrrolidin-2-yl)pyrimidin-2-yl] cyclopropanesulfonamide] showed a concentration for half-maximal inhibition (IC50) below 100 nM.

Take `CCOc1cncc(-c2cnc(C(=O)N[C@@H](C[C@H]3CCCCN3C)c3cc(NS(=O)(=O)C4CC4)ccn3)s2)n1` [I-142, N—((S)-1-(4-(cyclopropanesulfonamido)pyridin-2-yl)-2-((R)-1-methylpiperidin-2-yl)ethyl)-5-(6-ethoxypyrazin-2-yl)thiazole-2-carboxamide]: the IC50 is below 100 nM.

The compound `CCOc1cncc(-c2cnc(C(=O)N[C@H](C[C@H]3CCCCN3C)c3cc(NS(=O)(=O)C4CC4)ccn3)s2)n1` [I-145, N—((R)-1-(4-(cyclopropanesulfonamido)pyridin-2-yl)-2-((R)-1-methylpiperidin-2-yl)ethyl)-5-(6-ethoxypyrazin-2-yl)thiazole-2-carboxamide] returned an IC50 below 100 nM.

`CCOc1cncc(-c2cnc(C(=O)NC(c3cc(NS(=O)(=O)C4CC4)ccn3)C3CCN(C)CC3)s2)n1` (centres unmarked) [I-146, N-((4-(cydopropanesulfonamido)pyridin-2-yl)(1-methylpiperidin-4-yl)methyl)-5-(6-ethoxypyrazin-2-yl)thiazole-2-carboxamide] yielded an IC50 below 100 nM.
